This passage reports MIC and MIC values results from US20240067685A1, “HIDDEN ANTIBIOTICS IN THE HUMAN PROTEOME” (priority 2022, published 2024).

Values after ≈ are worked out from the molar mass of the structure shown.

Assay in all cases: microbe, parasite or virus in culture
The subject of experiment [1] is S. epidermidis ATCC 35984. The conditions noted are these: for MIC: Staphylococcus epidermidis, ATCC35984, read-out: MIC values; for MIC values: conventional antimicrobial agents, Staphylococcus epidermidis ATCC 35984. The method, then: (§1) Antimicrobial activity. The antimicrobial activity of ApoB-derived encrypted peptides was assessed against a panel of skin pathogens, such as S. epidermidis ATCC 35984, S. aureus ATCC 12600, A. baumannii ATCC 17878, K. pneumoniae ATCC 700603, S. aureus MRSA (WK7-2), E. faecalis ATCC 29212 and P. aeruginosa PAO1 by using the broth microdilution method. ^20 Bacteria were grown to mid-logarithmic phase in MHB at 37° C. […] Following incubation over-night, each sample was diluted, plated on TSA, and incubated at 37° C. for 24 h to count the number of colonies. All experiments were performed in three independent replicates.

The next experiment deals with A. baumannii ATCC 17878. The conditions noted are these: for MIC: Acinetobacter baumannii, ATCC17878, read-out: MIC values; for MIC values: conventional antimicrobial agents, Acinetobacter baumannii ATCC 17878. The procedure:
as §1

Experiment [2] relates to K. pneumoniae ATCC 700603. The conditions noted are these: for MIC values: conventional antimicrobial agents, Klebsiella pneumoniae ATCC 700603; for MIC: Klebsiella pneumoniae, ATCC700603, read-out: MIC values. The method, then: as §1
The test system of another experiment is S. aureus ATCC 12600. The conditions noted are these: for MIC: Staphylococcus aureus, ATCC12600, read-out: MIC values; for MIC values: conventional antimicrobial agents, Staphylococcus aureus ATCC 12600. The procedure: as §1

On to `O=C(OOC(=O)c1ccccc1)c1ccccc1` [Benzoyl Peroxide], for which the MIC in experiment [1] worked out at 16 µg/mL (≈ 66.1 µM); in the experiment with A. baumannii ATCC 17878, 32 µg/mL (≈ 132 µM); with S. aureus ATCC 12600, 16 µg/mL (≈ 66.1 µM). Moreover, the MIC values entry in experiment [2] is recorded as “Resistant”.
`CCC[C@@H]1C[C@@H](C(=O)N[C@@H]([C@H]2O[C@H](SC)[C@H](O)[C@@H](O)[C@H]2O)[C@H](C)Cl)N(C)C1` [Clindamycin]: the results for the MIC (in the experiment on A. baumannii ATCC 17878; in experiment [2]; in the experiment with S. aureus ATCC 12600) were 62.5 µg/mL (≈ 147 µM), 125 µg/mL (≈ 294 µM) and 0.5 µg/mL (≈ 1.18 µM), respectively.
`O=C(O)CN(CCN(CC(=O)O)CC(=O)O)CC(=O)O` [EDTA]: the MIC values in experiment [1] is 196 µg/mL (≈ 671 µM); against A. baumannii ATCC 17878, 24.5 µg/mL (≈ 83.8 µM); in experiment [2], 49 µg/mL (≈ 168 µM); with S. aureus ATCC 12600, 24.5 µg/mL (≈ 83.8 µM).
With `CC[C@H]1OC(=O)[C@H](C)[C@@H](O[C@H]2C[C@@](C)(OC)[C@@H](O)[C@H](C)O2)[C@H](C)[C@@H](O[C@@H]2O[C@H](C)C[C@H](N(C)C)[C@H]2O)[C@](C)(O)C[C@@H](C)C(=O)[C@H](C)[C@@H](O)[C@]1(C)O` [Erytromycin], the MIC values entry in experiment [1] is listed as “Resistant”. Further, the MIC was found to be 125 µg/mL (≈ 170 µM) with A. baumannii ATCC 17878, 7.8 µg/mL (≈ 10.6 µM) in experiment [2] and 15 µg/mL (≈ 20.4 µM) with S. aureus ATCC 12600.
For `CC(=O)O[C@H]1C[C@@]2(C)[C@@H](C[C@@H](O)[C@H]3[C@@]4(C)CC[C@@H](O)[C@@H](C)[C@@H]4CC[C@@]32C)/C1=C(\CCC=C(C)C)C(=O)O` [Fusidic acid], the MIC in experiment [1] is 0.06 µg/mL (≈ 0.116 µM); in the experiment with A. baumannii ATCC 17878 it was 2.25 µg/mL (≈ 4.35 µM); in the experiment with S. aureus ATCC 12600 it was 0.06 µg/mL (≈ 0.116 µM). The MIC values entry in experiment [2] is “Resistant”.
`CN[C@H](CC(C)C)C(=O)N[C@H]1C(=O)N[C@@H](CC(N)=O)C(=O)N[C@H]2C(=O)N[C@H]3C(=O)N[C@H](C(=O)N[C@H](C(=O)O)c4cc(O)cc(O)c4-c4cc3ccc4O)[C@H](O)c3ccc(c(Cl)c3)Oc3cc2cc(c3O[C@@H]2O[C@H](CO)[C@@H](O)[C@H](O)[C@H]2O[C@H]2C[C@](C)(N)[C@H](O)[C@H](C)O2)Oc2ccc(cc2Cl)[C@H]1O` [Vancomycin]: the MIC in experiment [1] worked out at 1.56 µg/mL (≈ 1.08 µM); in the experiment on A. baumannii ATCC 17878, 50 µg/mL (≈ 34.5 µM); in experiment [2], 50 µg/mL (≈ 34.5 µM); in the experiment on S. aureus ATCC 12600 it was 0.78 µg/mL (≈ 0.538 µM).
Polymyxin B: the MIC values came out at 3.12 µg/mL in experiment [1], 6.25 µg/mL in the experiment with A. baumannii ATCC 17878, 6.25 µg/mL in experiment [2] and 12.5 µg/mL in the experiment on S. aureus ATCC 12600.
